Molecular target: T1, human somatostatin receptor subtype 2 (Homo sapiens, UniProt P30874)
T1 construct: expressed in transfected cells
Assay: cAMP functional assay for SSTR2 agonists
Assay type: cell-based
Details: inhibition of cAMP activities via human SST2 receptor (SSTR2), CHO-K1 cells; read-out: EC50
Outline: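 CHO-K1 cells stably expressing human SSTR2 were treated for 20 min at 37 °C with compound plus NKH477 (added as 1.6 μM) in HBSS with IBMX. Intracellular cAMP was measured by HTRF against a standard curve. EC50 values came from concentration-response curves.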

T1 sequence (P30874 whole entry): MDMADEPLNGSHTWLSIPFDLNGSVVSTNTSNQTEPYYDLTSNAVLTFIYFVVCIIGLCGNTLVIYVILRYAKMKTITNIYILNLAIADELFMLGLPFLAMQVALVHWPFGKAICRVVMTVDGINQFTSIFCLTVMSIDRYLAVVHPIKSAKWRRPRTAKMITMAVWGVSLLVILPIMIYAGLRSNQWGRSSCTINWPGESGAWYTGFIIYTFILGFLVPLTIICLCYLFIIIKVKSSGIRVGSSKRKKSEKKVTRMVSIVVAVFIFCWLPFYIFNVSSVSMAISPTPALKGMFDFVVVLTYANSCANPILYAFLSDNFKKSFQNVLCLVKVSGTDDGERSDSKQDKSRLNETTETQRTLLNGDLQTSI

Row | EC50 | SMILES
1 | < 10 nM | Cc1cc(F)cc(-c2cnnc(-c3nc4cc(F)ccc4[nH]3)c2N2CCC(N)CC2)c1 [Compound 3-13, 1-[3-(5-fluoro-1H-1,3-benzodiazol-2-yl)-5-(3-fluoro-5-methylphenyl)pyridazin-4-yl]piperidin-4-amine]
2 | < 10 nM | Cc1cc(F)cc(-c2cnnc(-c3[nH]c4cc(Cl)ccc4c3Cl)c2N2CCC(N)CC2)c1 [Compound 3-14, 1-[3-(3,6-dichloro-1H-indol-2-yl)-5-(3-fluoro-5-methylphenyl)pyridazin-4-yl]piperidin-4-amine]
3 | > 100 nM | Cc1cc(F)cc(-c2cnnc(-c3cc4ccc(-c5nn[nH]n5)cc4[nH]3)c2N2CCC(N)CC2)c1 [Compound 3-15, 1-[5-(3-fluoro-5-methylphenyl)-3-[6-(2H-1,2,3,4-tetrazol-5-yl)-1H-indol-2-yl]pyridazin-4-yl]piperidin-4-amine]
4 | < 10 nM | Cc1cc(F)cc(-c2cnnc(-c3cc4ccc(C)cc4[nH]3)c2N2CCC(N)CC2)c1 [Compound 3-16, 1-[5-(3-fluoro-5-methylphenyl)-3-(6-methyl-1H-indol-2-yl)pyridazin-4-yl]piperidin-4-amine]
5 | < 10 nM | Cc1cc(F)cc(-c2cnnc(-c3cc4cc(C#N)ccc4[nH]3)c2N2CCC(N)CC2)c1 [Compound 3-17, 2-[4-(4-aminopiperidin-1-yl)-5-(3-fluoro-5-methylphenyl)pyridazin-3-yl]-1H-indole-5-carbonitrile]
6 | < 10 nM | COC(=O)c1ccc2cc(-c3nncc(-c4cc(C)cc(F)c4)c3N3CCC(N)CC3)[nH]c2c1 [Compound 3-18, methyl 2-[4-(4-aminopiperidin-1-yl)-5-(3-fluoro-5-methylphenyl)pyridazin-3-yl]-1H-indole-6-carboxylate]
7 | < 10 nM | Cc1cc(F)cc(-c2cnnc(-c3cc4ccc(C(N)=O)cc4[nH]3)c2N2CCC(N)CC2)c1 [Compound 3-19, 2-[4-(4-aminopiperidin-1-yl)-5-(3-fluoro-5-methylphenyl)pyridazin-3-yl]-1H-indole-6-carboxamide]
8 | 10 to 100 nM | CONC(=O)c1ccc2cc(-c3nncc(-c4cc(C)cc(F)c4)c3N3CCC(N)CC3)[nH]c2c1 [Compound 3-20, 2-[4-(4-aminopiperidin-1-yl)-5-(3-fluoro-5-methylphenyl)pyridazin-3-yl]-N-methoxy-1H-indole-6-carboxamide]
9 | < 10 nM | COc1ccc2c(Cl)c(-c3nncc(-c4cc(C)cc(F)c4)c3N3CCC(N)CC3)[nH]c2c1 [Compound 3-21, 1-[3-(3-chloro-6-methoxy-1H-indol-2-yl)-5-(3-fluoro-5-methylphenyl)pyridazin-4-yl]piperidin-4-amine]
10 | < 10 nM | Cc1cc(F)cc(-c2cnnc(-c3nc4cc(C#N)ccc4[nH]3)c2N2CCC(N)CC2)c1 [Compound 3-22, 2-[4-(4-aminopiperidin-1-yl)-5-(3-fluoro-5-methylphenyl)pyridazin-3-yl]-1H-1,3-benzodiazole-5-carbonitrile]
11 | < 10 nM | Cc1cc(F)cc(-c2cnnc(-c3cc4cccc(C#N)c4[nH]3)c2N2CCC(N)CC2)c1 [Compound 3-23, 2-[4-(4-aminopiperidin-1-yl)-5-(3-fluoro-5-methylphenyl)pyridazin-3-yl]-1H-indole-7-carbonitrile]
12 | < 10 nM | Cc1cc(F)cc(-c2cnnc(-c3[nH]c4cc(C#N)ccc4c3Cl)c2N2CCC(N)CC2)c1 [Compound 3-24, 2-[4-(4-aminopiperidin-1-yl)-5-(3-fluoro-5-methylphenyl)pyridazin-3-yl]-3-chloro-1H-indole-6-carbonitrile]
13 | < 10 nM | COc1ccc2c(C#N)c(-c3nncc(-c4cc(C)cc(F)c4)c3N3CCC(N)CC3)[nH]c2c1 [Compound 3-25, 2-[4-(4-aminopiperidin-1-yl)-5-(3-fluoro-5-methylphenyl)pyridazin-3-yl]-6-methoxy-1H-indole-3-carbonitrile]
14 | < 10 nM | Cc1cc(F)cc(-c2cnnc(-c3[nH]c4cc(C#N)ccc4c3C#N)c2N2CCC(N)CC2)c1 [Compound 3-26, 2-[4-(4-aminopiperidin-1-yl)-5-(3-fluoro-5-methylphenyl)pyridazin-3-yl]-1H-indole-3,6-dicarbonitrile]
15 | < 10 nM | CNc1ncc(-c2cc(C)cc(F)c2)c(N2CCC(NC)CC2)c1-c1nc2cc(Cl)ccc2[nH]1 [Compound 4-1, 3-(5-chloro-1H-1,3-benzodiazol-2-yl)-5-(3-fluoro-5-methylphenyl)-N-methyl-4-[4-(methylamino)piperidin-1-yl]pyridin-2-amine]
16 | < 10 nM | CNC1CCN(c2c(-c3cc(C)cc(F)c3)cnc(N)c2-c2nc3ccc(C#N)cc3[nH]2)CC1 [Compound 4-2, 2-[2-amino-5-(3-fluoro-5-methylphenyl)-4-[4-(methylamino)piperidin-1-yl]pyridin-3-yl]-1H-1,3-benzodiazole-6-carbonitrile]
17 | < 10 nM | CNC1CCN(c2c(-c3cc(C)cc(F)c3)cnc(N)c2-c2nc3cc(C#N)cc(F)c3[nH]2)CC1 [Compound 4-3, 2-[2-amino-5-(3-fluoro-5-methylphenyl)-4-[4-(methylamino)piperidin-1-yl]pyridin-3-yl]-7-fluoro-1H-1,3-benzodiazole-5-carbonitrile]
18 | < 10 nM | COc1cccc2nc(-c3c(N(C)C)ncc(-c4cc(C)cc(F)c4)c3N3CCC(N)CC3)[nH]c12 [Compound 4-4, 4-(4-aminopiperidin-1-yl)-5-(3-fluoro-5-methylphenyl)-3-(7-methoxy-1H-1,3-benzodiazol-2-yl)-N,N-dimethylpyridin-2-amine]
19 | < 10 nM | Cc1cc(F)cc(-c2cnc(N(C)C)c(-c3nc4cc(F)cc(F)c4[nH]3)c2N2CCC(N)CC2)c1 [Compound 4-5, 4-(4-aminopiperidin-1-yl)-3-(5,7-difluoro-1H-1,3-benzodiazol-2-yl)-5-(3-fluoro-5-methylphenyl)-N,N-dimethylpyridin-2-amine]
20 | < 10 nM | COc1cc(F)cc2nc(-c3c(N4CC(F)C4)ncc(-c4cccc(F)c4)c3N3CCC(N)CC3)[nH]c12 [Compound 4-9, 1-[3-(5-fluoro-7-methoxy-1H-1,3-benzodiazol-2-yl)-2-(3-fluoroazetidin-1-yl)-5-(3-fluorophenyl)pyridin-4-yl]piperidin-4-amine]
21 | < 10 nM | CNC1CCN(c2c(-c3cc(C)cc(F)c3)cnc(N)c2-c2nc3cc(F)cc(OC)c3[nH]2)CC1 [Compound 4-10, 3-(5-fluoro-7-methoxy-1H-1,3-benzodiazol-2-yl)-5-(3-fluoro-5-methylphenyl)-4-[4-(methylamino)piperidin-1-yl]pyridin-2-amine]
22 | < 10 nM | Cc1cc(F)cc(-c2cnc(N3CCNCC3)c(-c3nc4cc(Cl)ccc4[nH]3)c2N2CCC(N)CC2)c1 [Compound 4-11, 1-[3-(5-chloro-1H-1,3-benzodiazol-2-yl)-5-(3-fluoro-5-methylphenyl)-2-(piperazin-1-yl)pyridin-4-yl]piperidin-4-amine]
